What was measured:
[1] = system: H929 PomR tumors; assay: Pomalidomide resistant H929 PomR xenograft; format: in vivo, mice; settings: 100 μg/kg/day PO
Excerpt: Data are expressed as MTV±SEM.

[2] = system: Pfeiffer; assay: Anti-proliferative activity, 96 hours; settings: Homo sapiens
[3] = system: Rec-1; assay: Anti-proliferative activity, 96 hours; settings: Homo sapiens, Rec1, 96 h
[4] = system: Jeko-1; assay: Anti-proliferative activity, 96 hours; settings: Homo sapiens, JeKo-1, 96 h
[5] = system: anaplastic large cell lymphoma (ALCL) cell lines; assay: Anti-cancer activity in ALCL cell lines; format: cell-based; settings: four out of six cell lines were responsive; read-out: mean IC50 among the responsive lines
[6] = system: WSU-DLCL2; assay: Anti-proliferative activity, 96 hours; settings: Homo sapiens, WSUDLCL2, 96 h
[7] = system: Mino; assay: Anti-proliferative activity, 96 hours; settings: Homo sapiens
[8] = system: LP-1; assay: Anti-proliferative activity, 96 hours; settings: Homo sapiens, LP-1, 96 h
[9] = system: Interferon-response proteins in DL-40 ALCL xenograft tumors; assay: Global proteomics and gene ontology of DL-40 ALCL xenograft tumors, 48 hours after dose; format: in vivo, mice; settings: 0.1 nM for 48 hr
Method: […] Gene ontology analysis was done by using BINGO, a Java-based tool that is implemented as a plugin for Cytoscape. Default settings were used to assess the overexpression of GO categories and the interactions among altered proteins were determined using the STRING database, with a cutoff score of 700.

Compound: O=C1CC[C@H](N2C(=O)c3cccc4c(Cc5ccc(CN6CCOCC6)cc5)ccc2c34)C(=O)N1 (single isomer, unassigned) [Compound 1]
- tumors versus pomalidomide 3000 μg/kg/day [1]: smaller
- IC50 [2]: 1.08 nM
- IC50 [3]: 0.353 nM
- IC50 [4]: 43.2 nM
- IC50 [5]: 1.7 nM
- IC50 [6]: 2.8 nM
- IC50 [7]: 0.194 nM
- IC50 [8]: 0.642 nM
- Log2 vs Vehicle, AAAS [9]: 0.043
- Log2 vs Vehicle, ABCE1 [9]: −0.112
- Log2 vs Vehicle, ADAR [9]: 0.065
- Log2 vs Vehicle, ARIHI [9]: 0.023
- Log2 vs Vehicle, B2M [9]: −0.048
- Log2 vs Vehicle, BST2 [9]: 0.241
- Log2 vs Vehicle, CAMK2A [9]: −0.697
- Log2 vs Vehicle, CAMK2B [9]: 0.054
- Log2 vs Vehicle, CAMK2D [9]: 0.038
- Log2 vs Vehicle, CAMK2G [9]: −0.054
- Log2 vs Vehicle, CD44 [9]: −0.377
- Log2 vs Vehicle, CIITA [9]: −0.076
- Log2 vs Vehicle, DDX58 [9]: 0.455
- Log2 vs Vehicle, EIF2AK2 [9]: 0.527
- Log2 vs Vehicle, EIF4A1 [9]: 0.13
- Log2 vs Vehicle, EIF4A2 [9]: 0.08
- Log2 vs Vehicle, EIF4A3 [9]: 0.079
- Log2 vs Vehicle, EIF4E2 [9]: 0.179
- Log2 vs Vehicle, EIF4E3 [9]: 0.208
- Log2 vs Vehicle, EIF4G1 [9]: −0.048
- Log2 vs Vehicle, EIF4G2 [9]: −0.071
- Log2 vs Vehicle, EIF4G3 [9]: −0.108
- Log2 vs Vehicle, FLNA [9]: 1.179
- Log2 vs Vehicle, FLNB [9]: 0.234
- Log2 vs Vehicle, GBP1 [9]: 0.343
- Log2 vs Vehicle, GBP2 [9]: −0.269
- Log2 vs Vehicle, GBP4 [9]: 0.388
- Log2 vs Vehicle, HERC5 [9]: −0.149
- Log2 vs Vehicle, HLA-A [9]: −0.128
- Log2 vs Vehicle, HLA-B [9]: 0.066
- Log2 vs Vehicle, HLA-C [9]: −0.065
- Log2 vs Vehicle, HLA-DPA1 [9]: −0.139
- Log2 vs Vehicle, HLA-DPB1 [9]: −0.023
- Log2 vs Vehicle, HLA-DQA2 [9]: −0.144
- Log2 vs Vehicle, HLA-DQB1 [9]: 0.055
- Log2 vs Vehicle, HLA-DRA [9]: −0.133
- Log2 vs Vehicle, HLA-DRB1 [9]: −0.1
- Log2 vs Vehicle, HLA-E [9]: −0.167
- Log2 vs Vehicle, HLA-F [9]: 0.408
- Log2 vs Vehicle, ICAM1 [9]: 0.31
- Log2 vs Vehicle, IFI30 [9]: 0.217
- Log2 vs Vehicle, IFI35 [9]: 0.153
- Log2 vs Vehicle, IFIT2 [9]: −0.186
- Log2 vs Vehicle, IFIT3 [9]: 0.736
- Log2 vs Vehicle, IR.F9 [9]: 0.535
- Log2 vs Vehicle, IRF1 [9]: 0.147
- Log2 vs Vehicle, IRF2 [9]: −0.265
- Log2 vs Vehicle, IRF3 [9]: 0.114
- Log2 vs Vehicle, IRF4 [9]: −0.452
- Log2 vs Vehicle, IRF5 [9]: 0.192
- Log2 vs Vehicle, IRF7 [9]: 0.264
- Log2 vs Vehicle, ISG15 [9]: 0.241
- Log2 vs Vehicle, ISG20 [9]: −0.168
- Log2 vs Vehicle, J A KI [9]: 0.036
- Log2 vs Vehicle, KPNA1 [9]: 0.045
- Log2 vs Vehicle, KPNA2 [9]: 0.058
- Log2 vs Vehicle, KPNA3 [9]: 0
- Log2 vs Vehicle, KPNA4 [9]: 0.075
- Log2 vs Vehicle, KPNB1 [9]: 0.038
- Log2 vs Vehicle, MAPK3 [9]: −0.042
